In ChEMBL document CHEMBL1150263, “Combining docking, molecular dynamics and the linear interaction energy method to predict binding modes and affinities for non-nucleoside inhibitors to HIV-1 reverse transcriptase” (J Med Chem, 2008):

Biological target: Human immunodeficiency virus type 1 reverse transcriptase (Human immunodeficiency virus 1, UniProt Q72547)
Test: Inhibition of HIV1 reverse transcriptase

Q: For `Cc1cc(C)cc(Cc2c(C)c(C)[nH]c(=O)c2N(C)C)c1`, which IC50 is on record?
A: 5 nM

Q: `Cc1cc(C)cc(Cc2cc(C)[nH]c(=O)c2N(C)C)c1` was tested. Which IC50 did it give?
A: 398 nM

Q: How did the IC50 turn out when `CCc1[nH]c(=O)c(N(C)C)c(Cc2cc(C)cc(C)c2)c1C` was run?
A: 10 nM

Q: How did the IC50 turn out when `CCc1c(C)[nH]c(=O)c(NNC(N)=S)c1Cc1cccc(C)c1` was run?
A: 316 nM

Q: `CCC1C(Cc2cccc(C)c2)=C(N(C)CCO)C(=O)NC1C` (stereo not drawn) was tested. Which IC50 did it give?
A: 5 nM

Q: With `Cc1cc(C)cc(Cc2c(C)c(C(C)C)[nH]c(=O)c2N(C)C)c1` as the compound, how does the IC50 read?
A: 794 nM

Q: How did the IC50 turn out when `CCc1c(C)[nH]c(=O)c(NNC(=S)Nc2ccccc2)c1Cc1cccc(C)c1` was run?
A: 3160 nM

Q: How did the IC50 turn out when `Cc1cc(C)cc(Cc2cc[nH]c(=O)c2N(C)C)c1` was run?
A: 7940 nM

Q: How did the IC50 turn out when `Cc1cc(C)cc(Cc2c(CC(C)C)c(C)[nH]c(=O)c2N(C)C)c1` was run?
A: 50 nM

Q: With `Cc1cc(C)cc(Cc2c3c([nH]c(=O)c2N(C)C)CCCC3)c1` as the compound, how does the IC50 read?
A: 10 nM

Q: For `CCNC(=S)NNc1c(Cc2cccc(C)c2)c(CC)c(C)[nH]c1=O`, which IC50 is on record?
A: 25100 nM

Q: Which IC50 does the source give for `CCCc1c(C)[nH]c(=O)c(N(C)C)c1Cc1cc(C)cc(C)c1` here?
A: 50 nM

Q: How did the IC50 turn out when `CCc1c(C)[nH]c(=O)c(N(C)C)c1Cc1cc(C)cc(C)c1` was run?
A: 8 nM
